Measured values reported in patent publication US20070299062A1 (The Procter & Gamble Company, priority 2006, published 2007).
Read-outs that look alike come from different tables or passages of the source.

Legend:
[1] = target: T1, 5-HT2c receptor (Homo sapiens, UniProt P28335); assay: 5-HT2c receptor binding assay (3H-mesulergine competition)
T1 construct: purchased Perkin-Elmer or Euroscreen (named only as possible suppliers)
T1 sequence (P28335 33-458): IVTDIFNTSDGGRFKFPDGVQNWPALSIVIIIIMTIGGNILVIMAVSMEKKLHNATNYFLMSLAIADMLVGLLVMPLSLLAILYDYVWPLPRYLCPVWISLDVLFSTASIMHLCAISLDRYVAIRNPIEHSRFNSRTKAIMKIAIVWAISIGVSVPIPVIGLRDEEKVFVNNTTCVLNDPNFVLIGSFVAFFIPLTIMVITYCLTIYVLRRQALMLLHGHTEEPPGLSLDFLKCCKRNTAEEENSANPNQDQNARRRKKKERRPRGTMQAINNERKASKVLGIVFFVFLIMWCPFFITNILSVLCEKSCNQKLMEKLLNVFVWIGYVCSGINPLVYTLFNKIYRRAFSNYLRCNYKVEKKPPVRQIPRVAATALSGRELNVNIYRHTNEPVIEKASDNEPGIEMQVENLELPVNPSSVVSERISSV
Protocol: MCH antagonist compounds are evaluated for binding to the serotonin 5-HT2c receptor to determine receptor selectivity. Binding activity is assessed using a competitive assay with ^3H-mesulergine (Perkin Elmer), a 5-HT2c selective ligand, on membrane containing the 5-HT2c receptor. Briefly, 1 nM ^3H-mesulergine and varying concentrations of the compound are incubated with 5-HT2c receptor membranes, following an incubation period, the membranes are washed and ^3H-mesulergine bound to membranes is measured in a liquid scintillation counter. The amount of bound ^3H-mesulergine at the varying concentration of competitor compound is used to derive the affinity (Ki) of the compound for the 5-HT2c receptor. 5-HT2c receptor containing membranes are readily available from several companies including Perkin-Elmer and Euroscreen.

[2] = target: MCH-1R (UniProt Q99705); assay: MCH-1R competition binding assay
Protocol: In vitro binding and function assays are performed on membranes derived from cells or tissues expressing endogenous MCH1R. Competition binding assays are performed to identify high affinity compounds. Briefly, either radiolabeled or europium labeled MCH with varying concentrations of competitor compound which are incubated with membranes expressing the receptor. Rat brain membrane or cell lines, including but not limited to human Kelly neuroblastoma cells, A-431 epidermoid cells, and rat PC-12 cells are known to express endogenous MCH1R and are used in the assay. Binding is allowed to proceed until equilibrium is reached then bound labeled MCH is separated from free MCH by capturing membranes onto a filter. The filters are washed to remove loosely associated MCH and labeled MCH is quantified. Data is analyzed and IC50 and Ki are calculated to determine compound affinity.

[3] = 1 nM 3H-mesulergine, read-out: Ki (nM) binding data 5-HT2C

Compound | Ki [1, 3] [nM] | Ki [2] [nM] | Ki [1] [nM]
CC(=O)N1CCN(Cc2ccc3c(c2)CC[C@H](n2cnc4cc(-c5cccnc5F)sc4c2=O)C3)CC1 [(S)-3-[6-(4-Acetylpiperazin-1-ymethyl)-1,2,3,4-tetrahydronapthalen-2-yl]-6-(2-fluoropyridin-3-yl)thieno[3,2-d]pyrimidin-4(3H)-one] | > 100000 | 813 | 
CC(=O)N1CCN(Cc2ccc3c(c2)CC[C@H](n2cnc4cc(-c5ccc(Cl)c(Cl)c5)sc4c2=O)C3)CC1 [(S)-3-[6-(4-Acetylpiperazin-1-ymethyl)-1,2,3,4-tetrahydronapthalen-2-yl]-6-(3,4-dichlorophenyl)thieno[3,2-d]pyrimidin-4(3H)-one] | > 100000 | 54.5 | 
CC(=O)N1CCN(Cc2ccc3c(c2)CC[C@H](n2cnc4cc(-c5ccc(F)c(F)c5)sc4c2=O)C3)CC1 [(S)-3-[6-(4-Acetylpiperazin-1-ymethyl)-1,2,3,4-tetrahydronapthalen-2-yl]-6-(3,4-difluorophenyl)thieno[3,2-d]pyrimidin-4(3H)-one] | > 100000 | 36.6 | 
CC(=O)N1CCN(Cc2ccc3c(c2)CC[C@H](n2cnc4cc(-c5cc(F)cc(F)c5)sc4c2=O)C3)CC1 [(S)-3-[6-(4-Acetylpiperazin-1-ymethyl)-1,2,3,4-tetrahydronapthalen-2-yl]-6-(3,5-difluorophenyl)thieno[3,2-d]pyrimidin-4(3H)-one] | > 100000 | 369 | 
CC(=O)N1CCN(Cc2ccc3c(c2)CC[C@H](n2cnc4cc(-c5cccc(F)c5)sc4c2=O)C3)CC1 [(S)-3-[6-(4-Acetylpiperazin-1-ymethyl)-1,2,3,4-tetrahydronapthalen-2-yl]-6-(3-fluorophenyl)thieno[3,2-d]pyrimidin-4-(3H)one] | > 100000 | 17.9 | 
CC(=O)N1CCN(Cc2ccc3c(c2)CC[C@H](n2cnc4cc(-c5ccc(F)cc5)sc4c2=O)C3)CC1 [(S)-3-[6-(4-Acetylpiperazin-1-ymethyl)-1,2,3,4-tetrahydronapthalen-2-yl]-6-(4-fluorophenyl)thieno[3,2-d]pyrimidin-4(3H)-one] | 6360 | 9.4 | 
COc1ccc(-c2cc3ncn([C@H]4CCc5cc(CN6CCN(C(C)=O)CC6)ccc5C4)c(=O)c3s2)cc1 [(S)-3-[6-(4-Acetylpiperazin-1-ymethyl)-1,2,3,4-tetrahydronapthalen-2-yl]-6-(4-methoxyphenyl)thieno[3,2-d]pyrimidin-4(3H)-one] | > 100000 | 65.2 | 
CC(=O)N1CCN(Cc2ccc3c(c2)CC[C@H](n2cnc4cc(-c5ccc(C)cc5)sc4c2=O)C3)CC1 [(S)-3-[6-(4-Acetylpiperazin-1-ymethyl)-1,2,3,4-tetrahydronapthalen-2-yl]-6-(4-methylphenyl)thieno[3,2-d]pyrimidin-4(3H)-one] | 5460 | 16.1 | 
CC(=O)N1CCN(Cc2ccc3c(c2)CC[C@H](n2cnc4cc(-c5cncc(Cl)c5)sc4c2=O)C3)CC1 [(S)-3-[6-(4-Acetylpiperazin-1-ymethyl)-1,2,3,4-tetrahydronapthalen-2-yl]-6-(5-chloropyridin-3-yl)thieno[3,2-d]pyrimidin-4(3H)-one] | > 100000 | 38 | 
CC(=O)N1CCN(Cc2ccc3c(c2)CC[C@H](n2cnc4cc(-c5cncc(F)c5)sc4c2=O)C3)CC1 [(S)-3-[6-(4-Acetylpiperazin-1-ymethyl)-1,2,3,4-tetrahydronapthalen-2-yl]-6-(5-fluoropyridin-3-yl)thieno[3,2-d]pyrimidin-4(3H)-one] | > 100000 | 97 | 
CC(=O)N1CCN(Cc2ccc3c(c2)CC[C@H](n2cnc4cc(-c5cccnc5)sc4c2=O)C3)CC1 [(S)-3-[6-(4-Acetylpiperazin-1-ymethyl)-1,2,3,4-tetrahydronapthalen-2-yl]-6-(pyridin-3-yl)thieno[3,2-d]pyrimidin-4(3H)-one] | > 100000 | 1930 | 
CC(=O)N1CCN(Cc2ccc3c(c2)CC[C@H](n2cnc4cc(-c5ccncc5)sc4c2=O)C3)CC1 [(S)-3-[6-(4-Acetylpiperazin-1-ymethyl)-1,2,3,4-tetrahydronapthalen-2-yl]-6-(pyridin-4-yl)thieno[3,2-d]pyrimidin-4(3H)-one] | 8090 | 988 | 
CC(=O)N1CCN(Cc2ccc3c(c2)CC[C@H](n2cnc4cc(-c5cccs5)sc4c2=O)C3)CC1 [(S)-3-[6-(4-Acetylpiperazin-1-ymethyl)-1,2,3,4-tetrahydronapthalen-2-yl]-6-(thien-2-yl)thieno[3,2-d]pyrimidin-4(3H)-one] | 1760 | 270 | 
CC(=O)N1CCN(Cc2ccc3c(c2)CC[C@H](n2cnc4cc(-c5ccsc5)sc4c2=O)C3)CC1 [(S)-3-[6-(4-Acetylpiperazin-1-ymethyl)-1,2,3,4-tetrahydronapthalen-2-yl]-6-(thien-3-yl)thieno[3,2-d]pyrimidin-4(3H)-one] | 2010 | 137 | 
CC(=O)N1CCN(Cc2ccc3c(c2)CC[C@H](n2cnc4cc(-c5cccc(Cl)c5)sc4c2=O)C3)CC1 [(S)-3-[6-(4-Acetylpiperazin-l-ymethyl)-1,2,3,4-tetrahydronapthalen-2-yl]-6-(3-chlorophenyl)thieno[3,2-d]pyrimidin-4(3H)-one] | > 100000 | 70.5 | 
CC(=O)N1CCN(Cc2ccc3c(c2)CC[C@H](n2cnc4cc(-c5ccc(C#N)cc5)sc4c2=O)C3)CC1 [(S)-4-(3-(6-((4-acetylpiperazin-1-yl)methyl)-1,2,3,4-tetrahy] [(S)-4-(3-(6-((4-acetylpiperazin-1-yl)methyl)-1,2,3,4-tetrahydronaphthalen-2-yl)-4-oxo-3,4-dihydrothieno[3,2-d]pyrimidin-6-yl)benzonitrile] | > 100000 | 397 | 
CS(=O)(=O)N1CCN(Cc2ccc3c(c2)CC[C@H](n2cnc4cc(-c5ccc(Cl)cc5)sc4c2=O)C3)CC1 [(S)-6-(4-Chlorophenyl)-3-(6-((4-methylsulfonyl)piperazin-1-yl)methyl)-1,2,3,4-tetrahydronapthalen-2-yl)thieno[3,2,-d]pyrimidin-4(3H)-one] | > 100000 | 65 | 
CCN(CC)Cc1ccc2c(c1)CC[C@H](n1cnc3cc(-c4ccc(Cl)cc4)sc3c1=O)C2 [(S)-6-(4-Chlorophenyl)-3-(6-diethylaminomethyl-1,2,3,4-tetrahydronaphthalen-2-yl)-4a,7a-dihydro-3H-thieno[3,2-d]pyrimidin-4-one] |  | 13 | 6780
O=c1c2sc(-c3ccc(Cl)cc3)cc2ncn1[C@H]1CCc2cc(CN3CCCCC3)ccc2C1 [(S)-6-(4-Chlorophenyl)-3-(6-piperidin-1-ylmethyl-1,2,3,4-tetrahydronaphthalen-2-yl)thieno[3,2-d]pyrimidin-4(3H)-one] | 3730 | 24.3 | 
O=c1c2sc(-c3ccc(Cl)cc3)cc2ncn1[C@H]1CCc2cc(CN3CCCC3)ccc2C1 [(S)-6-(4-Chlorophenyl)-3-(6-pyrrolidin-1-ylmethyl-1,2,3,4-tetrahydronaphthalen-2-yl)thieno[3,2-d]pyrimidin-4(3H)-one] | 3730 | 13.7 | 
CN1CCN(C2CCN(Cc3ccc4c(c3)CC[C@H](n3cnc5cc(-c6ccc(Cl)cc6)sc5c3=O)C4)CC2)CC1 [(S)-6-(4-Chlorophenyl)-3-(6-{[4-(4-methylpiperazin-1-yl)piperidin-1-yl]methyl}-1,2,3,4-tetrahydronapthalen-2-yl)thieno[3,2-d]pyrimidin-4(3H)-one] | 4790 | 42 | 
O=c1c2sc(-c3ccc(Cl)cc3)cc2ncn1[C@H]1CCc2cc(CN3CCS(=O)(=O)CC3)ccc2C1 [(S)-6-(4-Chlorophenyl)-3-[6-(1,1-dioxo-1λ^6-thiomorpholin-4-ylmethyl)-1,2,3,4-tetrahydronaphthalen-2-yl)thieno[3,2-d]pyrimidin-4(3H)-one] | > 100000 | 1020 | 
CC(=O)N1CC2CC1CN2Cc1ccc2c(c1)CC[C@H](n1cnc3cc(-c4ccc(Cl)cc4)sc3c1=O)C2 (stereo partly drawn) [(S)-6-(4-Chlorophenyl)-3-[6-(5-acetyl-2,5-diaza-bicyclo[2.2.1]hept-2-ylmethyl)-1,2,3,4-tetrahydronaphthalen-2-yl)thieno[3,2-d]pyrimidin-4(3H)-one] | > 100000 | 1.8 | 
O=c1c2sc(-c3ccc(Cl)cc3)cc2ncn1[C@H]1CCc2cc(CN3CCOCC3)ccc2C1 [(S)-6-(4-Chlorophenyl)-3-[6-(morpholinomethyl)-1,2,3,4-tetrahydronapthalene-2-yl]thieno[3,2-d]pyrimidin-4-(3H)-one] | > 100000 | 103 | 
